Experimental data taken from patent US5670506A, “Halogen, isothiocyanate or azide substituted xanthines” (Cell Therapeutics, Inc., priority 1993, dated 1997).
Entries after “also recorded” stand apart in the source; their conditions may differ.

Legend:
Type in all cases: cell-based
[1] = system: CMV promoter activity in transformed (adenovirus) cells; assay: CMV promoter assay (gene transcription and translation, cytotoxic activity); settings: read-out: IC50 (μM), CMV promoter assay
Source text: This example illustrates data regarding proliferative activity of various inventive compounds for inducting CMV promoter activity. The CMV promoter assay measures gene transcription and translation activity wherein any active compounds will nave cytotoxic activity to inhibit cellular protein synthesis machinery in transformed (adenovirus) cells.

[2] = system: human stromal cells; assay: inhibition of proliferation of human stromal cells stimulated with PDGF; settings: FIG. 7; 50 ng/ml PDGF-BB, in words
Experimental: (§1) This assay is a model for restenosis and treatment of atherosclerosis and coronary artery disease. Stromal cells were starved in serum-free media for one day and then stimulated with 50 ng/ml PDGF-BB. The drags were added at the indicated concentrations one hour prior to PDGF stimulation. Tritiated thymidine was added for one day at the time of PDGF stimulation and the cells were harvested and counted by liquid scintillation counting 24 hrs later. Background counts (i.e., starved cells) were approximately 1% of control levels.
Another assay for measuring activity of the inventive compounds involves determining PDGF (platelet derived growth factor) proliferative response using human-derived stromal cells. Human stromal cells are plated (e.g., about 2000 cells per well) in defined media (e.g., 69% McCoy's, 12.5% fetal calf serum, 12.5% horse serum, 1% antibiotics, 1% glutamine, 1% vitamin supplement, 0.8% essential amino acids, 1% sodium pyruvate, 1% sodium bicarbonate, 0.4% non-essential amino acids and 0.36% hydrocortisone). Two to three days later, the stromal cells are starved in serum-free media. Twenty four hours later, the cells are treated with a stimulating agent, such as PDGF-AA, PDGF-BB or basic FGF (fibroblast growth factor) with or without IL-1α or TNF, and tritiated thymidine. Cell proliferation is determined by liquid scintillation counting.
as §1, with “drugs” for “drags”

[3] = system: mast cells; assay: mast cell degranulation, serotonin release assay; settings: 100 μM
Source text: A serotonin release assay is utilized to study the utility of the inventive compounds for treatment of asthma and allergy. This assay measures mast cell degranulation, which is an early phase reaction to allergen challenge. Mast cells grown in tissue culture are first loaded with ^3 H serotonin, which is incorporated into the granules in the cells. The mast cells are sensitized with antigen specific monoclonal IgE, and then triggered to degranulate with the specific antigen (dinitrophenol bound to BSA (DNP)). When the cells degranulate, ^3 H Serotonin is released into the medium, and can be measured directly. The ability of the inventive compounds to inhibit the degranulation response is determined by the decrease in ^3 H Serotonin released in the presence of drug and is represented as % INHIBITION. The IC50 of any given compound is determined by the ability of that compound to inhibit degranulation by 50%.
Specifically, the serotonin release assay seeds 2×10^5 cells in 0.5 ml medium in duplicate for spontaneous release, IgE+DNP, IgE+DNP+EtOH (vehicle control), and inventive compounds. One μCi [^3H ]-Serotonin/ml (i.e., 0.5 μCi/well) (NEN Research Products, cat. #NET-398 Hydroxytryptamine Binoxalate, 5-[1,2-^3 H(N)]-(Serotonin Binoxalate, [1,2-^3 H(N)]-)) and 1 μl/ml IgE is added. The cells are incubated for 18 hours at 37° C. in 5% CO2, washed twice with 0.5 ml Isotonic Buffer (25 mM disodium PIPES pH 7.1,100 mM NaCl, 5 mM KCl, 5 mM glucose, 0.4 mM MgCl2, 1 mM CaCl2, 0.1% BSA), and sterile filtered. 250 μl Isotonic Buffer is added per well and the plates are equilibrated in an incubator for about 10 min. Drug is added and cells are activated with 40 ng/ml DNP-BSA (1 mg/ml Diluted 1:200 in Isotonic Buffer) for 45 minutes using 2 μl/250 μl. Spontaneous release is determined in incubated cells with 250 μl Isotonic Buffer for 45 minutes and the reaction is stopped by removing supernatant and centrifuging at ~4000 rpm in microfuge for 15 seconds to remove any detached cells. Released radiolableled serotonin is counted. To determine amount of ^3 H-serotonin incorporated into the cells, (a) remove Isotonic Buffer and lyse cells by adding 250 μl 1% Triton-X100 in PBS, (b) add to 5 ml scintillation fluid, (c) wash 2× with Triton/PBS, and (d) add washes to scintillation tube. Percent serotonin release is calculated by dividing the amount of released serotonin by the sum of incorporated plus released serotonin and correcting for spontaneous released serotonin. Compound inhibition is calculated by dividing the percent serotonin release in the presence of a compound by the percent serotonin release in the absence of the compound.
This assay is described above and provides an in vitro model for an allergy and asthma therapeutic compound.

[4] = system: TNF release from monocytes in whole blood; assay: ex vivo human TNF model, LPS-mediated TNF release in whole blood; settings: FIG. 14
Experimental: (§2) This model adds LPS to whole blood (normal human volunteers) to trigger a dose-dependent synthesis and extracellular release of TNF according to Desch et al. (Lymphokine Res. 8:141, 1989). The ex vivo model examines whether LPS-mediated release of TNF from monocytes in whole blood can be block by an inventive compound.
An ex vivo human sepsis model is described in Desch et al., Lymphokine Res. 8:141, 1989 and in Ooi et al., J. Exp. Med. 174:649, 1991. Briefly, whole blood from humans is incubated with LPS (endotoxin). TNF released from cells (mostly from monocytes) is measured. The inventive compounds lower TNF levels as compared with untreated controls in this model.
as §2, with “This example illustrates a comparative experiment comparing CT1595, CT1529 and CT2519 in an ex vivo human TNF model described herein. This assay is a predictive model for treatment and prevention of septic shock and sepsis syndrome. This” for “This”

[5] = system: transformed cells (Ras 3T3) and normal 3T3 cells; assay: cytotoxicity in transformed and normal 3T3 cells; settings: FIG. 9; five compounds
Experimental: A similar experiment is shown in FIG. 9 for five inventive compounds (see Table 1 […] for chemical names) showing differential cytotoxicity for the same normal and transformed cells.
Each inventive compound is investigated for cytotoxicity to determine appropriate doses for biological activity assays and to prevent cytotoxic reactions in in vitro assays when characterizing activity. Cells (e.g., NIH-3T3, Ras transformed 3T3 cells, malignant melanoma LD2 cells, etc.) are added to microtiter plates and drug is added about two days after plating. Cell viability is determined using a fluorescent viability stain (e.g., 2',7'-bis-(2-carboroxyethyl)-5-(and -6)-carboxyfluorescein acetoxymethyl ester, BCECF excitation 488 nm and emission 525 nm) 24, 48 or 72 hours after addition of the drug.
This example illustrates a comparison of cytotoxicity determinations for CT1595 in transformed cells (Ras 3T3) and in normal 3T3 cells at drug doses of 1, 10 and 100 μM in in vitro cell culture conditions (FIG. 8). […] A similar experiment is shown in FIG. 9 for five inventive compounds (see Table 1 above for chemical names) showing differential cytotoxicity for the same normal and transformed cells.

Compound | IC50 [1] [µM] | inhibition of human stromal cell proliferation [2] | inhibition at 100 µM [3] [%] | block of LPS-mediated TNF release [4] | cytotoxic activity, normal and transformed 3T3 cells [5]
Cn1cnc2c1c(=O)n(CCCCCCCl)c(=O)n2C [CT1525, 1-(6-chlorohexyl)-3,7-dimethylxanthine] | > 500 |  |  |  | 
Cn1cnc2c1c(=O)n(CCCCC(O)CN=[N+]=[N-])c(=O)n2C (stereo not shown) [CT1517, 1-(6-azido-5-hydroxyhexyl)-3,7-dimethylxanthine] | > 500 | strongly inhibit proliferation |  |  | 
CC(=O)OC(CBr)CCCCCCn1c(=O)c2c(ncn2C)n(C)c1=O (stereo not shown) [CT1514, 1-(7-acetoxy-8-bromooctyl)-3,7-dimethylxanthine] | > 500 | strongly inhibit proliferation |  |  | 
CC(F)CCCCn1c(=O)c2c(ncn2C)n(C)c1=O (stereo not shown) [CT1577, 1-(5-fluorohexyl)-3,7-dimethylxanthine] | > 500 | strongly inhibit proliferation | 46 |  | 
CC(=O)OC(CBr)CCCCCCCCn1c(=O)c2c(ncn2C)n(C)c1=O (stereo not shown) [CT1583, 1-(9-acetoxy-10-bromodecyl)-3,7-dimethylxanthine] | > 500 | strongly inhibit proliferation |  |  | 
CC(CCCCn1c(=O)c2c(ncn2C)n(C)c1=O)OC(=O)CCl (stereo not shown) [CT1529, 1-(5-(chloroacetoxy)hexyl)-3,7-dimethylxanthine] | 100 |  |  | could block TNF release in a dose-dependent fashion; also recorded: most effective agent at lower doses | significant cytotoxic activity
CC(=O)OC(CBr)CCCCCCCn1c(=O)c(C)cn(C)c1=O (stereo not shown) [CT1908, 3-(8-acetoxy-9-bromononyl)-1-methylthymine] | 50 |  |  |  | 
Cn1cnc2c1c(=O)n(CCCCCCBr)c(=O)n2C [CT1589, 1-(6-bromohexyl)-3,7-dimethylxanthine] | 125 | strongly inhibit proliferation | 53 |  | 
CC(=O)OC(CBr)CCCCn1c(=O)c2ccccc2n(C)c1=O (stereo not shown) [CT1205, 3-(5-acetoxy-6-bromohexyl)-1-methylbenzoyleneurea] | 200 |  |  |  | 
Cn1cnc2c1c(=O)n(CCCCCCOC(=O)CCl)c(=O)n2C [CT1527, 1-(6-(chloroacetoxy)hexyl)-3,7-dimethylxanthine] | 200 |  |  |  | 
